≈ marks a conversion by molar mass, not a printed value.

This experiment deals with M. tuberculosis isoniazid-resistant strain (spec. 210). As to the kind of experiment: Tuberculostatic activity, test-tube dilution. Type of experiment: cell-based. The settings on record: Mycobacterium tuberculosis, read-out: MIC M. tuberculosis Isoniazid-Resistant Strain.
For the compound `CC[C@@H](C(=O)[C@@H](C)[C@@H](O)[C@H](C)[C@@H]1O[C@@H]([C@@H](CC)C(=O)O)CC[C@@H]1C)[C@H]1O[C@]2(C=C[C@@H](O)[C@]3(CC[C@@](C)([C@H]4CC[C@](O)(CC)[C@H](C)O4)O3)O2)[C@H](C)C[C@@H]1C` [SAL, Salinomycin], the MIC came out at 50 µg/mL (≈ 66.6 µM).
Consider `CC[C@H](C(=O)NCc1ccc(Br)cc1)C1CC[C@H](C)C([C@@H](C)[C@H](O)[C@H](C)C(=O)[C@H](CC)C2O[C@]3(C=C[C@@H](O)C4(CC[C@@](C)(C5CC[C@](O)(CC)[C@H](C)O5)O4)O3)[C@H](C)C[C@@H]2C)O1` (some centres unmarked) [Br-p], for which the MIC was determined as 100 µg/mL (≈ 109 µM).
As to `CCC(C(=O)NCc1cccc(F)c1)C1CCC(C)C(C(C)C(O)C(C)C(=O)C(CC)C2OC3(C=CC(O)C4(CCC(C)(C5CCC(O)(CC)C(C)O5)O4)O3)C(C)CC2C)O1` (centres unmarked) [F-m], the MIC was over 100 µg/mL.
As to `CCC(C(=O)NCc1ccccc1F)C1CCC(C)C(C(C)C(O)C(C)C(=O)C(CC)C2OC3(C=CC(O)C4(CCC(C)(C5CCC(O)(CC)C(C)O5)O4)O3)C(C)CC2C)O1` (centres unmarked) [F-o], the MIC is 100 µg/mL (≈ 117 µM).
Turning to `CC[C@H](C(=O)NCc1cccc(Cl)c1)C1CC[C@H](C)C([C@@H](C)[C@H](O)[C@H](C)C(=O)[C@H](CC)C2O[C@]3(C=C[C@@H](O)C4(CC[C@@](C)(C5CC[C@](O)(CC)[C@H](C)O5)O4)O3)[C@H](C)C[C@@H]2C)O1` (some centres unmarked) [Cl-m], the MIC is over 100 µg/mL.
Consider `CC[C@H](C(=O)NCc1cccc([N+](=O)[O-])c1)C1CC[C@H](C)C([C@@H](C)[C@H](O)[C@H](C)C(=O)[C@H](CC)C2O[C@]3(C=C[C@@H](O)C4(CC[C@@](C)(C5CC[C@](O)(CC)[C@H](C)O5)O4)O3)[C@H](C)C[C@@H]2C)O1` (some centres unmarked) [NO2-m], for which the minimum inhibitory concentration (MIC) is over 100 µg/mL.
Take `CC[C@H](C(=O)NCc1cccc(Br)c1)C1CC[C@H](C)C([C@@H](C)[C@H](O)[C@H](C)C(=O)[C@H](CC)C2O[C@]3(C=C[C@@H](O)C4(CC[C@@](C)(C5CC[C@](O)(CC)[C@H](C)O5)O4)O3)[C@H](C)C[C@@H]2C)O1` (some centres unmarked) [Br-m]: the MIC is over 100 µg/mL.
For `CCC(C(=O)NCc1ccccc1[N+](=O)[O-])C1CCC(C)C(C(C)C(O)C(C)C(=O)C(CC)C2OC3(C=CC(O)C4(CCC(C)(C5CCC(O)(CC)C(C)O5)O4)O3)C(C)CC2C)O1` (centres unmarked) [NO2-o], the MIC is 100 µg/mL (≈ 113 µM).
Turning to `CC[C@H](C(=O)NCc1ccc(Cl)cc1)C1CC[C@H](C)C([C@@H](C)[C@H](O)[C@H](C)C(=O)[C@H](CC)C2O[C@]3(C=C[C@@H](O)C4(CC[C@@](C)(C5CC[C@](O)(CC)[C@H](C)O5)O4)O3)[C@H](C)C[C@@H]2C)O1` (some centres unmarked) [Cl-p, p-chlorobenzyl amide of salinomycin], the minimal inhibitory concentration (MIC) is over 100 µg/mL.
The result for `CC[C@H](C(=O)NCc1ccccc1Br)C1CC[C@H](C)C([C@@H](C)[C@H](O)[C@H](C)C(=O)[C@H](CC)C2O[C@]3(C=C[C@@H](O)C4(CC[C@@](C)(C5CC[C@](O)(CC)[C@H](C)O5)O4)O3)[C@H](C)C[C@@H]2C)O1` (some centres unmarked) [Br-o] reads over 100 µg/mL.
Turning to `NNC(=O)c1ccncc1` [Isoniazid, isoniazid, reference compound], the MIC was 6.25 µg/mL (≈ 45.6 µM).
Take `CC[C@H](C(=O)NCc1ccc([N+](=O)[O-])cc1)C1CC[C@H](C)C([C@@H](C)[C@H](O)[C@H](C)C(=O)[C@H](CC)C2O[C@]3(C=C[C@@H](O)C4(CC[C@@](C)(C5CC[C@](O)(CC)[C@H](C)O5)O4)O3)[C@H](C)C[C@@H]2C)O1` (some centres unmarked) [NO2-p]: the MIC was 50 µg/mL (≈ 56.5 µM).
As for `CC[C@H](C(=O)NCc1ccc(F)cc1)C1CC[C@H](C)C([C@@H](C)[C@H](O)[C@H](C)C(=O)[C@H](CC)C2O[C@]3(C=C[C@@H](O)C4(CC[C@@](C)(C5CC[C@](O)(CC)[C@H](C)O5)O4)O3)[C@H](C)C[C@@H]2C)O1` (some centres unmarked) [F-p], the minimal inhibitory concentration (MIC) turned out to be 50 µg/mL (≈ 58.3 µM).
Consider `CC[C@H](C(=O)NCc1ccccc1Cl)C1CC[C@H](C)C([C@@H](C)[C@H](O)[C@H](C)C(=O)[C@H](CC)C2O[C@]3(C=C[C@@H](O)C4(CC[C@@](C)(C5CC[C@](O)(CC)[C@H](C)O5)O4)O3)[C@H](C)C[C@@H]2C)O1` (some centres unmarked) [Cl-o], for which the minimal inhibitory concentration (MIC) is over 100 µg/mL.

As a reminder, the MIC is the smallest concentration in the dilution series that meets the test's criterion for growth inhibition.

These data come from publication PMC6271077, “Synthesis, Anticancer and Antibacterial Activity of Salinomycin N-Benzyl Amides” (Molecules, 2014).
